Measurements as given in patent US6352714B1, “Method of producing a metal nutrient for an animal feed” (DER, Inc., priority 2000, dated 2002).

Test system: nursery pigs
Assay: Chromium supplementation feeding study in nursery pigs (growth performance)
Format: in vivo
Settings: diet with 400 ppb chromium
Excerpt: A study was made to determine the effects of chromium leather hydrolysate supplementation in nursery pigs, as compared with other complexes, namely chromium picolinate and a yeast chromium complex. In this study, three groups of forty pigs each, with a mean weaning age of 17.6 days, were fed diets containing the chromium leather hydrolysate proteinate, chromium tripicolinate, or yeast chromium complex. In addition, a control group of forty pigs were not fed a supplement. In all cases, the chromium containing complex contained 400 ppb of chromium. Data relating to the average daily gains were obtained over three phases with Phase I being 0-7 days, Phase II being 8-14 days, and Phase III being 15-21 days.
In the above Table, ADG is “average daily gain” and ADFI is “average daily feed intake”.

For “chromium tripicolinate [Chromium picolinate]”, the “ADFI (average daily feed intake)” value (Phase I, 0-7 days) was 545 gms, the “ADG (average daily gain)” value (Phase I, 0-7 days) was 250 gms and the Gain/Feed (Phase I, 0-7 days) was 0.54. The “ADFI (average daily feed intake)” value (Phase II, 8-14 days) was 1.43 kg, the “ADG (average daily gain)” value (Phase II, 8-14 days) was 0.92 kg and the Gain/Feed (Phase II, 8-14 days) was 0.67. The “ADFI (average daily feed intake)” value (Phase III, 15-21 days) was 2.61, the “ADG (average daily gain)” value (Phase III, 15-21 days) was 1.26 kg and the Gain/Feed (Phase III, 15-21 days) was 0.48.
